In data set [1] the target is T1, R/H168^4.64 variant NxStaR (Homo sapiens, UniProt P35414, F214L/I224A/N112A/R168H/S298A/T207M/T87V).
T1 sequence (P35414 1-380 T87V/N112A/R168H/T207M/F214L/I224A/S298A): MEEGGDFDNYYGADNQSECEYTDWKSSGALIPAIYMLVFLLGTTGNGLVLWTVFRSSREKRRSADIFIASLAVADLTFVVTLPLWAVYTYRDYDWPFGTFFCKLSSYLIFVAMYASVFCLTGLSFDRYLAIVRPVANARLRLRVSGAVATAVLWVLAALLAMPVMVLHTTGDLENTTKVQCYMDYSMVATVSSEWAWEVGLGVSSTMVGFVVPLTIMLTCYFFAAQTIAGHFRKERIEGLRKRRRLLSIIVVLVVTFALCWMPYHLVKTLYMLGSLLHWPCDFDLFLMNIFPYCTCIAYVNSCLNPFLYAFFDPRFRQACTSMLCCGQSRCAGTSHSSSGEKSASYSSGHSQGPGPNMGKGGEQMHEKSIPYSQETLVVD
Description: SPR, pH dependence (Biacore 8K+), R/H168^4.64 NxStaR. The note with it: 5% DMSO, 10 °C, single determination. In general terms: SPR reads the build-up and loss of mass on a sensor chip optically.
Description: (§10) Both were equipped with a NTA sensor chip (Cytiva). […] 0.5 M EDTA pH 8.0 was injected for 60 s at 5 µL/min followed by a 60 s injection of run buffer containing 0.5 mM NiCl2. The surface was activated with a 1:1 mixture of 0.1 M NHS and 0.5 M EDC at a flow rate of 10 µL/min for 420 s. The receptors were injected at a concentration of 1 µM at 5 µL/min until a surface response of 5000 RU was achieved. The surface was equilibrated for 12 h in buffer before commencing experiments.
(§11) Compound and peptide binding was measured in pH 7.5 buffer previously described and in buffer at pH 6.0 comprising of 0.025 M MES, pH 6.0, 0.15 M NaCl, 0.02% DDM, 5% DMSO. The analyses were run in single-cycle format with four concentration points in a twofold dilution series. […] The association phase was 60 s for each concentration and the dissociation phase was 300 s. There were 4 blank cycles between compound injections.
(§12) The data were processed using Biacore T200 Evaluation Software (Version 2.0, Cytiva) and Biacore Insight Evaluation Software (Version 5.0, Cytiva). Sensorgrams were reference and blank subtracted before fitting with 1:1 binding model which accounted for drift, bulk shift and mass transport.

In the next data set the target is T2, apelin receptor NxStaR (Homo sapiens, UniProt P35414, F214L/I224A/N112A/S298A/T207M/T87V).
T2 sequence (P35414 1-380 T87V/N112A/T207M/F214L/I224A/S298A): T1 sequence (P35414 1-380 T87V/N112A/R168H/T207M/F214L/I224A/S298A) with H168R
Put plainly: SPR, pH dependence (Biacore 8K+), NxStaR. The conditions noted are these: 5% DMSO, 10 °C, single determination.

The target in the next data set is T3, human apelin receptor (Homo sapiens, UniProt P35414).
T3 sequence (P35414 1-380): T1 sequence (P35414 1-380 T87V/N112A/R168H/T207M/F214L/I224A/S298A) with V87T, A112N, H168R, M207T, L214F, A224I, A298S
Set-up: method as in 2 sources, ref Read et al., 2016, PMID:27475715 ||| ref Read et al. Biochem Pharmacol. 2016. The conditions noted are these: cited from earlier work.

Data set [2] has as its target T4, wild-type apelin receptor (Homo sapiens, UniProt P35414).
T4 construct: expressed in transfected cells; host or cells: CHO-K1 (ECACC 85051005), transient, pcDNA3.1
T4 sequence (P35414 1-380): T1 sequence (P35414 1-380 T87V/N112A/R168H/T207M/F214L/I224A/S298A) with V87T, A112N, H168R, M207T, L214F, A224I, A298S
Put plainly: DiscoveRx cAMP assay, CHO-K1 transiently transfected, wild-type. It counts as cell-based. From the text: (1 picture or pasted object on this page, not shown here)

The next data set in a line: Chrom logD. It counts as physicochemical. The note with it: chromatographic.
Another data set relates to apelin receptor. Description: DiscoveRx cAMP assay, CHO-K1 stably expressing the apelin receptor. The note with it: stably expressing CHO-K1, forskolin stimulated cAMP. It counts as cell-based, human. From the text:
(§1) (A) ERK1/2 and (B) eNOS in PAECs and ERK1/2 in (C) control and (D) PAH PASMcs following treatment with 0.1% serum (control), […]
(§2) measures with Tukey’s post-test for multiple comparisons. […]
(§3) difference in down-stream signalling with the endogenous ligands used in our study.
(§4) However, dynamic mass redistribution assays are a widely used (over 400 references in Pubmed) and generally accepted robust label-free technology to measure ligand-induced changes in the mass of cells and provides an integrated cellular response, comprising multiple pathways and cellular events. We believe
(§5) DMR is robust for testing the function of apelin receptor variants, particularly when combined with our radioligand binding assays. […]
(§6) recommended.’ We thank the referee for the recommendation but we were not successful in generating additional data in the apelin receptor variants with downstream signalling functional assays that we carried […]
(§7) We have tried to test the function of apelin receptor variants in a DiscoveRx cAMP assay. The figure below […]
(§8) Provided in the assay kit, CHO-K1 cells stably expressing the apelin receptor (shown in green) responded as […]
(§9) the levels of forskolin stimulated cAMP accumulation and decreasing the fluorescent signal in relative li ght units (RLU). CHO-K1 cells transiently transfected in-house with either wild-type (black), T/M89 (red), or […]

The subject of the next data set is anaesthetised rats. Set-up: method as in 2 sources, ref Read et al. Biochem Pharmacol 2016 ||| ref Yang et al., Circulation. 2017. The conditions noted are these: cited from earlier work.
The subject of data set [3] is apelin receptor in human, rat and mouse heart. Set-up: method as in Read et al. Biochem Pharmacol. 2016. The note with it: ref Read et al. Biochem Pharmacol. 2016; cited from earlier work.
The next data set deals with T/M89 apelin receptor. Put plainly: DiscoveRx cAMP assay, CHO-K1 transiently transfected, T/M89. It counts as cell-based, human.
Source text: as §1, §2, §3, §4, §5, §6, §7, §8, §9
On the technique in general: cAMP levels reflect the balance of adenylyl cyclase and phosphodiesterase activity.

A further data set relates to R/H168 apelin receptor. Description: DiscoveRx cAMP assay, CHO-K1 transiently transfected, R/H168. It counts as cell-based, human.
Source text: as §1, §2, §3, §4, §5, §6, §7, §8, §9

The next data set deals with rat. Set-up: method as in Yang et al., Circulation. 2017. The conditions noted are these: 21 days, rats; ref Yang et al., Circulation. 2017; cited from earlier work.
The mark [4] stands for this setting: ref Read et al. Biochem Pharmacol. 2016.

Numbering of substitutions follows the chain as printed.

As usually defined, the Kd is the concentration at which binding is half-saturated. A high value points to weaker binding.

Description for apelin receptor NxStaR: as §10, §11, §12

In the case of `CCC(CC)n1c(Cc2cccs2)nc2cc(C(=O)N[C@H](CC(=O)O)CC(C)C)ccc21` [CMF-019], the Kd was 14.6 nM in data set [1] (pH 6.0 (MES), 0.02% DDM); 68.7 nM in data set [1] (pH 7.5, 0.02% DDM); 3.4 nM on apelin receptor NxStaR (pH 6.0 (MES), 0.02% DDM); 6.1 nM at apelin receptor NxStaR (pH 7.5, 0.02% DDM). For the same compound, the “bias factor cAMP vs receptor internalisation” value on human apelin receptor (setting [4]) is given as ~ 5000. Moreover, the “bias factor cAMP vs β-arrestin recruitment” value on human apelin receptor (setting [4]) is ~ 400. Also, the “cAMP potency versus [Pyr1]apelin-13” value on human apelin receptor (setting [4]) is “comparable potency to [Pyr1]apelin-13”. For the same compound, the “bias towards G protein pathway over beta-arrestin” value on human apelin receptor (ref Read et al., 2016, PMID:27475715) is reported as 2250. Also, the cAMP response result in data set [2] was “did not show an observable response”; in the data set on apelin receptor, “reducing”; with T/M89 apelin receptor it was “did not show an observable response”; with R/H168 apelin receptor, “did not show an observable response”. Besides, in the data set “Chrom logD”, the “Chrom logD” value is 3.14. Moreover, the “stroke volume and cardiac output” value in the data set with anaesthetised rats (anaesthetised rats, ref Read et al. Biochem Pharmacol 2016) was “increased stroke volume and cardiac output”. The peripheral arterial pressure entry in the data set with anaesthetised rats (i.v. CMF-019 potassium salt, anaesthetised rat, ref Read et al. Biochem Pharmacol 2016) is “reduced peripheral arterial pressure”. Besides, the left ventricular contractility entry in the data set on anaesthetised rats (i.v. CMF-019 potassium salt, anaesthetised rats, ref Read et al. Biochem Pharmacol 2016) is on record as “dose dependent increases in left ventricular contractility”. Moreover, the “competition for specific binding of apelin” value in data set [3] is given as “competes for the specific binding of apelin”.

On to “NCLQRRCMPLHSRVPFP [ELA, endogenous peptide Elabela/Toddler]”, for which, in the data set with anaesthetised rats (carotid artery catheterisation, ref Yang et al., Circulation. 2017), the systemic vasodilatation result is given as “caused acute systemic vasodilatation”. For the same compound, the “blood pressure, chronic ELA treatment” value in the data set with rat was “did not significantly affect systemic blood pressure”.
